Publication PMC12124432, “Antimicrobial Peptide‐Peptoid Macrocycles from the Polymyxin B2 Chemical Space” (Angewandte Chemie (International Ed. in English), 2025)
≈ marks a conversion by molar mass, not a printed value. Numbered stars: 1 amine (or outer) side, 2 acyl side, 3 side chain; on linkers, the order of the positions; unused ones are H or OH. Bridge positions count the residues as written; N and C are the ends. Square brackets hold non-standard residues; d marks the D form. Peptide text beside a SMILES is read from it. * marks the point of attachment. NGly(CH2(3-pyridyl)) = O=C(O)CNCc1cccnc1; Propanoyl(3-cPent) = O=C(CCC1CCCC1)*; Gly(NCH2CH2Ph) = O=C(O)CNCCc1ccccc1; Cyclopentylacetyl = O=C(CC1CCCC1)*; Gly(N-2-aminoethyl) = NCCNCC(=O)O; X1 = O=C(CN(Cc1ccccn1)[*:1])[*:2]; Pentanoyl(4-Me) = CC(C)CCC(=O)*; Gly(N(CH2)3NH2) = NCCCNCC(=O)O; Gly(N-cHex) = O=C(O)CNC1CCCCC1; Gly(N-CH2CH2OH) = O=C(O)CNCCO; Heptanoyl = CCCCCCC(=O)*; NHexGly = CCCCCCNCC(=O)O; Nphe = O=C(O)CNCc1ccccc1; Octanoyl = CCCCCCCC(=O)*; Dab = NCC[C@H](N)C(=O)O; Pentanoyl = CCCCC(=O)*; Nleu = CC(C)CNCC(=O)O; NPrGly = CCCNCC(=O)O; Nlys = NCCCCNCC(=O)O

Assays:
P. aeruginosa PAO1 = format: cell-based, Pseudomonas aeruginosa; conditions: PAO1, pH 8.5
Procedure: (§1) Minimal Inhibitory Concentration (MIC)
(§2) Antimicrobial activity was assayed for all the peptide-peptoids against P. aeruginosa PAO1, K. pneumoniae NCTC418, E. coli W3110, A. baumannii ATCC 19606, methicillin-resistant S. aureus COL (MRSA) and for selected peptides on P. aeruginosa PA14, as well as the clinical isolates ZEM-1A and ZEM9A, K. pneumoniae OXA-48, Enterobacter cloacae, Stenotrophomonas maltophilia and Staphylococus epidermidis. To determine the Minimal Inhibitory Concentration (MIC), Broth Microdilution method was used. A colony of bacteria was picked and grown in LB medium overnight at 37 °C. The next day, the culture was then regrown in LB medium to log phase (OD600 = 0.6 to 0.8), which lasted approximately 4 hours, and diluted to an OD600 of 0.022 in the desired medium (full MH or 12.5% MH).
(§3) The compounds were prepared as stock solutions of 2 mg/mL in sterilized MilliQ deionized water and then diluted in the desired media (full MH or 12.5% MH) to reach the first concentration tested (32 μg/mL). The compounds were added to the first well of a 96-well sterile, round bottom microtiter plates in polystyrene (TPP®, untreated) and diluted serially by ½ in the desired media (full MH or 12.5% MH), to a final volume of 150 µL/well. To each well was finally added 4 µL of the diluted bacterial suspension (see above), corresponding to approximately 5×10^5 CFU. For each test, two columns of the plate were kept for sterility control (medium only), growth control (medium with bacterial inoculum, no compound). The positive control, Polymyxin B (starting with a concentration of 16 µg/mL) in MH medium with bacterial inoculums, was introduced in the two first lines of the plate. The plates were incubated at 37 °C for ca. 18 hours under static conditions. 15 µL of 3-(4,5-dimethylthiazol-2-yl)-2,5-diphenyltetrazolium bromide (MTT)[7] (1 mg/mL in sterilized MilliQ deionized water) were added to each well and the plates were incubated for 20-30 minutes at room temperature. The […]
(§4) minimal inhibitory concentration (MIC) was defined as the lowest concentration of the compound that inhibits the visible growth of the tested bacteria (yellow) with the unaided eye.
(§5) Minimal Hemolytic Concentration (MHC) […]
(§6) 11. Minimal inhibitory in presence of salt
The same procedure as for the antibacterial activity measurements by minimal inhibitory concentration assay (MIC) was applied. The media, 12.5% Mueller-Hinton broth was this time supplemented with different salt concentrations (0, 100, 200 300 mM NaCl). The MIC activities were then determined against Pseudomonas aeruginosa PAO1 and Escherichia coli […]
Table S6. Minimal inhibitory concentration (MIC) on P. aeruginosa PAO1 as function of salt […]
(§7) All data, in μg/mL, measured against P. aeruginosa PAO1, with or without addition of salt (NaCl). The values were measured in dilute medium (12.5% MH) and at slightly basic pH (pH = 8.5), after incubation for 16-20 h at 37 °C. Values represent two different duplicate MIC determinations.

E. coli W3110 = format: cell-based, Escherichia coli; conditions: W3110, pH 8.5
Procedure: as §1, §2, §3, §4, §5, §6
The same procedure as for the antibacterial activity measurements by minimal inhibitory concentration assay (MIC) was applied. The media, 12.5% Mueller-Hinton broth was this time supplemented with different salt concentrations (0, 100, 200 300 mM NaCl). […]
as §7

SMILES | MIC on P. aeruginosa, 0 mM NaCl (P. aeruginosa PAO1) [µg/mL] | MIC on P. aeruginosa, 100 mM NaCl (P. aeruginosa PAO1) [µg/mL] | MIC on P. aeruginosa, 200 mM NaCl (P. aeruginosa PAO1) [µg/mL] | MIC on P. aeruginosa, 300 mM NaCl (P. aeruginosa PAO1) [µg/mL] | MIC on E. coli, 0 mM NaCl (E. coli W3110) [µg/mL] | MIC on E. coli, 100 mM NaCl (E. coli W3110) [µg/mL] | MIC on E. coli, 200 mM NaCl (E. coli W3110) [µg/mL] | MIC on E. coli, 300 mM NaCl (E. coli W3110) [µg/mL]
CC(C)C[C@H](NC(=O)CN(CC(C)C)C(=O)[C@H](CC(C)C)NC(=O)CN(CCCCN)C(=O)[C@H](CC(C)C)NC(=O)CN(CC(C)C)C(=O)[C@H](CCCCN)NC(=O)CN(CC(C)C)C(=O)[C@H](CC(C)C)NC(=O)CN(CCCCN)C(=O)[C@@H](N)CCCCN)C(N)=O [EB9, reference compound] (H-K[Nlys]L[Nleu]K[Nleu]L[Nlys]L[Nleu]L-NH2) | 2 (≈ 1.51 µM) | 32 (≈ 24.2 µM) | > 64 | > 64 | 2 (≈ 1.51 µM) | 16 (≈ 12.1 µM) | 64 (≈ 48.4 µM) | > 64
CCCCCCCC(=O)N(CCN)CC(=O)N[C@@H](Cc1ccc(O)cc1)C(=O)N[C@@H](CCCCN)C(=O)N[C@H]1CCNC(=O)[C@H](CCCCN)NC(=O)CN(CCN)C(=O)[C@H](CCCNC(=N)N)NC(=O)[C@H](CCCCN)NC1=O [EB14] (Octanoyl-[Gly(N-2-aminoethyl)]YK[Dab]KR[Gly(N-2-aminoethyl)]K; lactam 4-C) | 4 (≈ 3.54 µM) | > 64 | > 64 | > 64 | 1 (≈ 0.885 µM) | 16 (≈ 14.2 µM) | 64 (≈ 56.6 µM) | > 64
CCCCCCCC(=O)N(CC(=O)N(CCN)CC(=O)N[C@@H](CCC(N)=O)C(=O)N[C@H]1CCNC(=O)[C@H](CCCCN)NC(=O)[C@H](CCCCN)NC(=O)CN(CCCCN)C(=O)[C@H](CCCCN)NC1=O)Cc1ccccn1 [EB16] (Octanoyl-[X1][Gly(N-2-aminoethyl)]Q[Dab]K[Nlys]KK; lactam 4-C) | 4 (≈ 3.59 µM) | > 64 | > 64 | > 64 | 0.5 (≈ 0.448 µM) | 32 (≈ 28.7 µM) | > 64 | > 64
CC(C)[C@@H]1NC(=O)[C@H](CCCCN)NC(=O)CN(CCN)C(=O)[C@H](CC(N)=O)NC(=O)[C@@H](NC(=O)CN(CCN)C(=O)[C@H](CCCCN)NC(=O)CN(CCc2ccccc2)C(=O)CC2CCCC2)CCNC(=O)[C@H](CCCCN)NC1=O [EB20] (Cyclopentylacetyl-[Gly(NCH2CH2Ph)]K[Gly(N-2-aminoethyl)][Dab]N[Gly(N-2-aminoethyl)]KVK; lactam 4-C; N-terminus assumed) | 16 (≈ 13.7 µM) | > 64 | > 64 | > 64 | 1 (≈ 0.855 µM) | 64 (≈ 54.7 µM) | > 64 | > 64
CCCCCCN(CC(=O)N[C@H]1CCNC(=O)[C@H](CCCCN)NC(=O)CN(CCN)C(=O)CN(CCN)C(=O)[C@H](CCCCN)NC(=O)[C@H](CC(N)=O)NC(=O)[C@H](CCCCN)NC1=O)C(=O)[C@H](CCCCN)NC(=O)CN(Cc1ccccc1)C(=O)CCCC [EB22] (Pentanoyl-[Nphe]K[NHexGly][Dab]KNK[Gly(N-2-aminoethyl)][Gly(N-2-aminoethyl)]K; lactam 4-C) | 4 (≈ 3.08 µM) | > 64 | > 64 | > 64 | 1 (≈ 0.769 µM) | 16 (≈ 12.3 µM) | > 64 | > 64
CCCCCCC(=O)N(CC(=O)N(CCCN)CC(=O)N(CCN)CC(=O)N[C@H]1CCNC(=O)[C@H](CCCCN)NC(=O)CN(C2CCCCC2)C(=O)CN(CCN)C(=O)[C@H](CCC(N)=O)NC(=O)[C@H](CCCNC(=N)N)NC1=O)Cc1ccccc1 [EB23] (Heptanoyl-[Nphe][Gly(N(CH2)3NH2)][Gly(N-2-aminoethyl)][Dab]RQ[Gly(N-2-aminoethyl)][Gly(N-cHex)]K; lactam 4-C) | 16 (≈ 13.1 µM) | > 64 | > 64 | > 64 | 2 (≈ 1.63 µM) | > 64 | > 64 | > 64
CCCN1CC(=O)N[C@@H](CC(N)=O)C(=O)N[C@@H](CCCCN)C(=O)N(CCCN)CC(=O)N[C@@H](CCCCN)C(=O)NCC[C@H](NC(=O)[C@H](CCCNC(=N)N)NC(=O)CNC(=O)CN(CCc2ccccc2)C(=O)CCC(C)C)C1=O [EB26] ({Pentanoyl(4-Me)}-[Gly(NCH2CH2Ph)]GR[Dab][NPrGly]NK[Gly(N(CH2)3NH2)]K; lactam 4-C) | 16 (≈ 13.8 µM) | > 64 | > 64 | > 64 | 4 (≈ 3.46 µM) | 16 (≈ 13.8 µM) | > 64 | > 64
NCCCC[C@@H]1NC(=O)CN(CCO)C(=O)[C@@H]2CCCN2C(=O)CN(CCCN)C(=O)[C@@H](NC(=O)[C@H](CC(N)=O)NC(=O)[C@H](CCCCN)NC(=O)[C@H](CCCCN)NC(=O)CN(Cc2ccccc2)C(=O)CCC2CCCC2)CCNC1=O [EB32] ({Propanoyl(3-cPent)}-[Nphe]KKN[Dab][Gly(N(CH2)3NH2)]P[Gly(N-CH2CH2OH)]K; lactam 5-C) | 32 (≈ 27.1 µM) | > 64 | > 64 | > 64 | 4 (≈ 3.38 µM) | > 64 | > 64 | > 64
CCCCCCCC(=O)N(CC(=O)N(CCCN)CC(=O)N[C@@H](CCC(N)=O)C(=O)N[C@H]1CCNC(=O)[C@H](CCCCN)NC(=O)[C@H](CCCCN)NC(=O)[C@H](CCC(N)=O)NC(=O)CN(CCCCN)C1=O)Cc1cccnc1 [EB34] (Octanoyl-[NGly(CH2(3-pyridyl))][Gly(N(CH2)3NH2)]Q[Dab][Nlys]QKK; lactam 4-C) | 32 (≈ 28.3 µM) | > 64 | > 64 | > 64 | 8 (≈ 7.08 µM) | > 64 | > 64 | > 64
